Experimental data taken from paper PMC3734285, “Expression and Function of the Lipocalin-2 (24p3/NGAL) Receptor in Rodent and Human Intestinal Epithelia” (PLoS ONE, 2013).
pKd: −log10 of the molar value. Read-outs that look alike come from different tables or passages of the source. Numbered stars: 1 amine (or outer) side, 2 acyl side, 3 side chain; on linkers, the order of the positions; unused ones are H or OH. Square brackets hold non-standard residues; d marks the D form. Peptide text beside a SMILES is read from it. * marks the point of attachment. X1 = N=c1ccc2c(-c3ccc(C(=O)*)cc3C(=O)O)c3ccc(N)c(S(=O)(=O)O)c3oc-2c1S(=O)(=O)O; γGlu = O=C(O)[C@H](CCC(=O)[*:2])N[*:1]

Experiments:
[1] = tested on: colon-like Caco-2 BBE cells; test: Internalization of fluorescence-labelled ligands, immunofluorescence microscopy; type: cell-based, human; details: for pKd: 24 h, up to 5.6 µM A488-PC3, FBS-free medium, 5-6 experiments
Experimental: The full-length clone of rat r24p3-R was transiently transfected into CHO cells 24 h after seeding using Lipofectamine 2000, as described previously. Forty eight hours after transfection, r24p3-R- and empty vector (pcDNA3.1)-transfected cells were incubated for 24 h with 0-2.8 µM A488-PC3, as described previously for A546-MT [24]. Colon- or duodenum-like Caco-2 BBE cells were seeded at a density of 50,000 cells/coverslip and grown for 48 h before addition of different concentrations of A488-PC3 or A546-MT ± hNGAL for 24 h in FBS-free medium. Cells were stained with primary α-NT-24p3-R antibody (1:100) and secondary Cy3-coupled anti-rabbit IgG (1:600) for A488-PC3 uptake or with A546-conjugated anti-rabbit IgG (1:600) for A546-MT uptake.
For each experiment, 5-10 images were acquired and quantified as described earlier. For determination of r24p3-R-dependent fluorescence uptake in CHO cells, values in vector-transfected cells were subtracted from values obtained in the corresponding r24p3-R-transfected cells. […] To determine hNGAL-R-specific uptake of fluorescent dye-labeled proteins in Caco-2 BBE cells 5 images of fields with clusters of hNGAL-R expressing Caco-2 BBE cells and 5 images of clusters of Caco-2 BBE cells not expressing hNGAL-R were analyzed in the absence or presence of the ligand of the hNGAL-R, hNGAL/lipocalin-2 (500 pM).
Unless otherwise indicated, the experiments were repeated at least three times and means ± S.D. were calculated, unless otherwise indicated. Analysis by unpaired Student’s t test or one-way ANOVA assuming equality of variance with Newman-Keuls Multiple Comparison test and Dunnett’s post-hoc test was performed with GraphPad Prism 5.0. […] Transcytosis data fitted using a one-phase exponential decay function. All curve fits were done with GraphPad Prism 5.0. Results with P < 0.05 were considered to be statistically significant.

[2] = tested on: colon-like Caco-2 BBE cell monolayers; test: Apical-to-basolateral transcytosis of fluorescence-labelled ligands across Transwell monolayers; type: in vitro ADME, human; details: colon-like Caco-2 BBE monolayers on Transwell, A-B, 700 nM ligand apical, control conditions (no hNGAL), fluorescence read-out; means ± SEM, n = 9-14
Experimental: For transyctosis studies Costar Transwell® culture inserts placed on 24-well plates were used (0.4 µM PE membrane, 0.33 cm^2 filter area. Corning Inc., Corning, NY, USA). Briefly, 1.3 ml of Caco-2 BBE medium with 10% FBS was added to the basolateral compartment and Caco-2 BBE colon-like cells were plated at a density of 5 x 10^4 cells/insert in 400 µl medium with 10% FBS added to the apical compartment. The transepithelial electrical resistance (TEER) across the cell monolayer was measured after 0, 24, 48, 72 h culture as well as before and after each experiment. The medium was replaced after 48 h on both, top (apical) and bottom (basolateral) compartments of the culture inserts. […] Before each experiment, the apical medium was replaced by 400 µl medium containing 1% FBS medium and the appropriate fluorescence-labelled ligand at a final concentration of 700 nM with or without 500 pM hNGAL whereas the basolateral medium with 10% FBS remained unchanged. At each experimental time point, 10 µl of the basolateral and the apical medium was removed, frozen at -80° C and subsequently analyzed for fluorescence intensity using standard capillaries in a Monolith NT.015 (NanoTemper Technologies GmbH, Munich, Germany). Data were quantified by semi-logarithmic plotting against standards obtained from stock solutions of fluorescent ligands. […]

Compound | pKd ([1]; read-out: first app KD of A488-PC3 internalization (two-site binding fit)) | pKd ([1]; read-out: second app KD of A488-PC3 internalization (two-site binding fit)) | effect of 500 pM hNGAL on uptake of 0.7 µM ligand ([1]; 24 h incubation, 0.7 µM ligand with 500 pM hNGAL, 4-5 experiments) | basolateral delivery (AUC over 8 h) [2] [nM x 8 h]
N=c1ccc2c(-c3ccc(C(=O)N[C@@H](CCC(=O)N[C@@H](CS)C(=O)N[C@@H](CCC(=O)N[C@@H](CS)C(=O)N[C@@H](CCC(=O)N[C@@H](CS)C(=O)NCC(=O)O)C(=O)O)C(=O)O)C(=O)O)cc3C(=O)O)c3ccc(N)c(S(=O)(=O)O)c3oc-2c1S(=O)(=O)O [A488-PC3] ({X1-γGlu}-C[γGlu]C[γGlu]CG-OH; N-terminus and C-terminus assumed) | ~7.05 | ~6.52 | significantly reduced | 299.4 ± 18.7
A546-Tf: Alexa Fluor 546-labelled transferrin from human serum (Molecular Probes) | – | – | – | 402.4 ± 28.0
